Assay [1] deals with T1, Monoglyceride lipase (Mus musculus, UniProt O35678).
T1 sequence (O35678 whole entry): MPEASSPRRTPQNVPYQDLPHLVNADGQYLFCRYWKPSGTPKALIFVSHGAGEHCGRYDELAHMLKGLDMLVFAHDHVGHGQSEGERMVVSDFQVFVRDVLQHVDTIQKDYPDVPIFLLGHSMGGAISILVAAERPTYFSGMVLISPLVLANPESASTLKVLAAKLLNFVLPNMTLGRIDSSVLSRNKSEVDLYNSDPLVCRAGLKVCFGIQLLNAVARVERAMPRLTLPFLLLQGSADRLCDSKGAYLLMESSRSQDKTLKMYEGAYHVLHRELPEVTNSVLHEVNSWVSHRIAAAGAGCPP
The assay is described as follows: Inhibition of FP-rhodamine probe binding to MGLL in mouse brain membrane proteome preincubated for 1 hr followed by FP-rhodamine addition and measured after 30 mins by SDS-PAGE based fluorescence assay. Type of assay: cell membranes.

The target of assay [2] is T2, Neutral cholesterol ester hydrolase 1 (Mus musculus, UniProt Q8BLF1).
T2 sequence (Q8BLF1 whole entry): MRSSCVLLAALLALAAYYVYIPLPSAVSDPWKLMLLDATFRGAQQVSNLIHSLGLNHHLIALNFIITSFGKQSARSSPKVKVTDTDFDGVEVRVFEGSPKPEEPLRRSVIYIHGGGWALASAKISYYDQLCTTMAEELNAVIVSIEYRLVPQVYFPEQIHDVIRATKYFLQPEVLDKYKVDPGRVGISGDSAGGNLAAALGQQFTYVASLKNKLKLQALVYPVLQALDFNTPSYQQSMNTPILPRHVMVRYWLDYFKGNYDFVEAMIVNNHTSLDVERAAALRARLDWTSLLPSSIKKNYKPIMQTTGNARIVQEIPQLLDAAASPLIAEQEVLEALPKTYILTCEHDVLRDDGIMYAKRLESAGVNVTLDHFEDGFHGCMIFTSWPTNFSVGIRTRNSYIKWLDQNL
The assay is described as follows: Inhibition of FP-rhodamine probe binding to KIAA1363 in mouse brain membrane proteome preincubated for 1 hr followed by FP-rhodamine addition and measured after 30 mins by SDS-PAGE based fluorescence assay. Type of assay: cell membranes.

A short description of assay [3]: Inhibition of recombinant rat FAAH deltaTM mutant expressed in Escherichia coli using 14C-labeled oleamide as substrate preincubated for 3 hrs followed by substrate addition and measured by TLC based Dixon-plot analysis. Conditions: read-out: Ki(app).
Assay [4] deals with T3, Fatty-acid amide hydrolase 1 (Mus musculus, UniProt O08914).
T3 sequence (O08914 whole entry): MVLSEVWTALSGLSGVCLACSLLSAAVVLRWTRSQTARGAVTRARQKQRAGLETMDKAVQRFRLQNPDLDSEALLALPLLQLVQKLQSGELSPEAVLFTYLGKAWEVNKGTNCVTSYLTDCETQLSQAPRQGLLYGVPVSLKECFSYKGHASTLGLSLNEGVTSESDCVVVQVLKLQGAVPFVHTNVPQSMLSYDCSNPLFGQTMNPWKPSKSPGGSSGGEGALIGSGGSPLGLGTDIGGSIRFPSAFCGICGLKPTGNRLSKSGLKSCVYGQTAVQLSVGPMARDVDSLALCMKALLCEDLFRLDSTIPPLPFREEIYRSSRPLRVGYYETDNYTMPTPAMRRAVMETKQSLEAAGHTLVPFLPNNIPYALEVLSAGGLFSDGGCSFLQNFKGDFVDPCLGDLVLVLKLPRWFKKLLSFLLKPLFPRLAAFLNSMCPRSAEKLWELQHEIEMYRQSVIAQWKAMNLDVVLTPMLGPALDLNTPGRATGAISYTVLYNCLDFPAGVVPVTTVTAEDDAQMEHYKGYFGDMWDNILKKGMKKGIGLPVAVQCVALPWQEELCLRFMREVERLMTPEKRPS
The assay is described as follows: Inhibition of FP-rhodamine probe binding to FAAH in mouse brain membrane proteome preincubated for 1 hr followed by FP-rhodamine addition and measured after 30 mins by SDS-PAGE based fluorescence assay. Type of assay: cell membranes.

Usually IC50 stands for the concentration that inhibits the measured activity by half. High values mean lower potency, low ones higher potency. Take `O=C(NCc1ccc(OCc2ccccc2)cc1)n1cccn1`: the IC50 in assay [1] is 900 nM; in assay [2] it was above 100000 nM; in assay [4] it was 800 nM. Besides, in assay [3], the Ki is 100 nM.

For `N#Cc1cnn(C(=O)NCc2ccc(OC(c3ccccc3)c3ccccc3)cc2)c1`, the IC50 in assay [1], in assay [2] and in assay [4] was above 100000 nM each time. Besides, in assay [3], the Ki was determined as 80000 nM.

Turning to `O=C(NCc1ccc2ccccc2c1)n1cccn1`, the Ki in assay [3] is above 5000 nM.

Consider `Cc1cnn(C(=O)OCCCc2ccccc2)c1`, for which the Ki in assay [3] is above 5000 nM.

On to `N#Cc1cnn(C(=O)NCc2ccc(Oc3ccccc3)cc2)c1`, for which the Ki in assay [3] is 9.8 nM.

For `Cc1ccc(CNC(=O)n2cc(C#N)cn2)cc1`, in assay [3], the Ki is above 5000 nM.

In the case of `Cc1cnn(C(=O)OCc2ccc3ccccc3c2)c1`, in assay [3], the Ki was above 5000 nM.

As to `O=C(N1CCCN(Cc2ccc(Oc3ccccc3)cc2)CC1)n1cccn1`, the Ki in assay [3] amounted to 9.3 nM.

For the molecule `O=C(N1CCCN(Cc2cccc(OCc3ccccc3)c2)CC1)n1cccn1`, in assay [3], the Ki came out at 12 nM.

`Cc1cnn(C(=O)N2CCCN(Cc3cccc(OCc4ccccc4)c3)CC2)c1`: the Ki in assay [3] stood at 210 nM.

In the case of `Cc1cnn(C(=O)CCCCCCc2ccccc2)c1`, the Ki in assay [3] was above 5000 nM.

Turning to `Cc1cnn(C(=O)N2CCN(Cc3cccc(Oc4ccccc4)c3)CC2)c1`, the Ki in assay [3] was determined as 45 nM.

For the molecule `N#Cc1cnn(C(=O)OCCCCCc2ccccc2)c1`, the Ki in assay [3] was 4200 nM.

Turning to `Cc1cnn(C(=O)OCc2ccc(-c3ccccc3)cc2)c1`, the Ki in assay [3] is above 5000 nM.

With `O=C(OCc1ccc2ccccc2c1)n1cccn1`, in assay [3], the Ki is above 5000 nM.

For `CC(C)(C)OC(=O)N1CCCN(C(=O)n2cc(C#N)cn2)CC1`, the Ki in assay [3] worked out at 50 nM.

Consider `Cc1cnn(C(=O)CCCCc2ccccc2)c1`, for which, in assay [3], the Ki was above 5000 nM.

Turning to `Cc1cnn(C(=O)Oc2ccc3ccccc3c2)c1`, the Ki in assay [3] is above 5000 nM.

As for `Cc1ccc(COC(=O)n2cccn2)cc1`, the Ki in assay [3] was above 5000 nM.

For the molecule `Cc1ccc(COC(=O)n2cc(C#N)cn2)cc1`, the Ki in assay [3] is above 5000 nM.

Consider `O=C(CCCCCCc1ccccc1)n1cccn1`, for which, in assay [3], the Ki is above 5000 nM.

In the case of `N#Cc1cnn(C(=O)N2CCN(Cc3cccc(OCc4ccccc4)c3)CC2)c1`, in assay [3], the Ki is 0.15 nM.

As for `N#Cc1cnn(C(=O)N2CCN(Cc3ccc(-c4ccccc4)cc3)CC2)c1`, the Ki in assay [3] worked out at 0.19 nM.

Turning to `CN(CCN(C)C(=O)n1cccn1)C(=O)OC(C)(C)C`, the Ki in assay [3] was 80 nM.

With `Cc1cnn(C(=O)OCc2ccc(OCc3ccccc3)cc2)c1`, the Ki in assay [3] worked out at 1260 nM.

As to `O=C(NCc1ccc(Oc2ccccc2)cc1)n1cccn1`, the Ki in assay [3] came out at 180 nM.

Regarding `Cc1cnn(C(=O)N2CCN(Cc3ccc(-c4ccccc4)cc3)CC2)c1`, the Ki in assay [3] was 170 nM.

Consider `N#Cc1cnn(C(=O)N2CCN(Cc3ccccc3)CC2)c1`, for which, in assay [3], the Ki was determined as 75 nM.

Regarding `Cc1cnn(C(=O)CCCCCc2ccccc2)c1`, the Ki in assay [3] was above 5000 nM.

Turning to `Cc1cnn(C(=O)N(C)CCN(C)Cc2ccc(Oc3ccccc3)cc2)c1`, in assay [3], the Ki worked out at 55 nM.

For the molecule `Cc1cnn(C(=O)N2CCN(C(=O)OC(C)(C)C)CC2)c1`, the Ki in assay [3] is 850 nM.

For the molecule `Cc1cnn(C(=O)N2CCCN(C(=O)OC(C)(C)C)CC2)c1`, in assay [3], the Ki amounted to 2900 nM.

Take `O=C(N1CCN(Cc2ccc(-c3ccccc3)cc2)CC1)n1cccn1`: the Ki in assay [3] was 12 nM.

As for `Cc1cnn(C(=O)Cc2ccc(-c3ccccc3)cc2)c1`, in assay [3], the Ki is above 5000 nM.

As to `CC(C)(C)OC(=O)N1CCN(C(=O)n2cc(C#N)cn2)CC1`, the Ki in assay [3] turned out to be 55 nM.

As to `O=C(N1CCN(Cc2ccc3ccccc3c2)CC1)n1cc(Br)cn1`, the Ki in assay [3] turned out to be 0.47 nM.

As to `O=C(NCCCCc1ccccc1)n1cccn1`, the Ki in assay [3] stood at 290 nM.

Consider `CN(CCN(C)C(=O)n1cc(C#N)cn1)Cc1cccc(Oc2ccccc2)c1`, for which the Ki in assay [3] came out at 1.2 nM.

With `CC(C)(C)OC(=O)N1CCN(C(=O)n2cccn2)CC1`, the Ki in assay [3] amounted to 340 nM.

As to `Cc1cnn(C(=O)NCc2ccc(OCc3ccccc3)cc2)c1`, the IC50 in assay [1] was 1000 nM; in assay [2], above 100000 nM; in assay [4], 1200 nM. Besides, the Ki in assay [3] is 300 nM.

Take `Cc1cnn(C(=O)N(C)CCN(C)Cc2cccc(Oc3ccccc3)c2)c1`: the Ki in assay [3] was found to be 20 nM.

Take `Cc1cnn(C(=O)NCCCc2ccccc2)c1`: in assay [3], the Ki stood at 3000 nM.

Regarding `N#Cc1cnn(C(=O)N2CCN(Cc3cccc(Oc4ccccc4)c3)CC2)c1`, the Ki in assay [3] is 0.19 nM.

As for `Cc1cnn(C(=O)Nc2ccc3ccccc3c2)c1`, the Ki in assay [3] was above 5000 nM.

Take `Cc1cnn(C(=O)N2CCN(Cc3cccc(OCc4ccccc4)c3)CC2)c1`: in assay [3], the Ki worked out at 25 nM.

For the molecule `Cc1cnn(C(=O)N2CCCN(Cc3ccc(Oc4ccccc4)cc3)CC2)c1`, the Ki in assay [3] was determined as 110 nM.

As for `N#Cc1cnn(C(=O)NCCCc2ccccc2)c1`, the Ki in assay [3] amounted to 340 nM.

Turning to `Cc1cnn(C(=O)N2CCCN(Cc3cccc(Oc4ccccc4)c3)CC2)c1`, the Ki in assay [3] was found to be 75 nM.

For `N#Cc1cnn(C(=O)CCCCCc2ccccc2)c1`, the Ki in assay [3] is above 5000 nM.

Take `Cc1cnn(C(=O)NCc2ccc(Oc3ccccc3)cc2)c1`: in assay [3], the Ki came to 290 nM.

As for `Cc1cnn(C(=O)NCc2ccc(-c3ccccc3)cc2)c1`, the Ki in assay [3] is above 5000 nM.

Consider `N#Cc1cnn(C(=O)N2CCCN(Cc3cccc(Oc4ccccc4)c3)CC2)c1`, for which the Ki in assay [3] came out at 0.23 nM.

For `Cc1cnn(C(=O)N(C)CCN(C)C(=O)OC(C)(C)C)c1`, the Ki in assay [3] turned out to be 710 nM.

Consider `Cc1cnn(C(=O)NCc2ccc(OC(c3ccccc3)c3ccccc3)cc2)c1`, for which the IC50 in assay [1], in assay [2] and in assay [4] was above 100000 nM throughout. Further, the Ki in assay [3] stood at 220000 nM.

Consider `O=C(N1CCN(Cc2ccc(Oc3ccccc3)cc2)CC1)n1cccn1`, for which the Ki in assay [3] turned out to be 9.2 nM.

For the molecule `N#Cc1cnn(C(=O)Nc2ccc3ccccc3c2)c1`, the Ki in assay [3] was above 5000 nM.

With `N#Cc1cnn(C(=O)OCCCCc2ccccc2)c1`, the Ki in assay [3] amounted to 210 nM.

In the case of `N#Cc1cnn(C(=O)NCCCCCc2ccccc2)c1`, in assay [3], the Ki was 18 nM.

`COC(=O)c1cnn(C(=O)N2CCN(Cc3ccc4ccccc4c3)CC2)c1`: the Ki in assay [3] was 0.36 nM.

`N#Cc1cnn(C(=O)NCc2ccc(OCc3ccccc3)cc2)c1`: the IC50 is 100 nM in assay [1], above 100000 nM in assay [2] and 60 nM in assay [4]. The Ki in assay [3] worked out at 17 nM.

As to `O=C(NCCCCCc1ccccc1)n1cccn1`, in assay [3], the Ki worked out at 280 nM.

As for `Cc1cnn(C(=O)NCCCCc2ccccc2)c1`, in assay [3], the Ki turned out to be 550 nM.

For `N#Cc1cnn(C(=O)N2CCCN(Cc3ccc(Oc4ccccc4)cc3)CC2)c1`, the Ki in assay [3] came to 1 nM.

With `CC(C)(C)OC(=O)N1CCCN(C(=O)n2cccn2)CC1`, the Ki in assay [3] was 620 nM.

With `O=C(NCc1ccc(OC(c2ccccc2)c2ccccc2)cc1)n1cccn1`, the IC50 in assay [1], in assay [2] and in assay [4] was above 100000 nM in each case. In addition, the Ki in assay [3] came out at 140000 nM.

Turning to `N#Cc1cnn(C(=O)Cc2ccc3ccccc3c2)c1`, in assay [3], the Ki was above 5000 nM.

For `N#Cc1cnn(C(=O)N2CCN(Cc3ccc(Oc4ccccc4)cc3)CC2)c1`, the Ki in assay [3] stood at 0.1 nM.
